From patent US20090054504A1 (KNOPP NEUROSCIENCES, INC., priority 2007, published 2009)
Values joined by “and” are separate entries in the source; they are usually repeats but may differ in a detail not shown here. Equal entries are not always repeated. Where two headings read alike, the source gives them in different places.

Legend:
minipigs [1] = system: minipigs
[2] = system: non-naïve male beagle dogs
Procedure: Doses were administered orally by gavage and clinical observations were taken continuously following dosing: hourly for the first four hours, and then twice daily cage-side observations for the duration of the inter-dose or post-dose interval. Observations were made of clinical signs, mortality, injury and availability of food and water. Animals were fasted for 24 hr prior to dosing. Dogs in each group were exposed to only one drug, or the combination; each dose was administered only once, with a subsequent dose administered after a recovery period of 4 days.

clinical [3] = details: human, blood, oral
Procedure: (§1) Safety observations included vital signs, physical examination, clinical laboratory tests, ECGs, and adverse event reporting. Blood and urine samples were collected pre-dose and for 72 hours post-dose to assess the pharmacokinetics.

healthy adult volunteers [4] = test: clinical; details: for CL/F / Ue / Fe / λZ: mean ± SD
Procedure: as §1

minipigs [5] = details: 6-month study, any dose level
D2 dopamine receptor = test: D2 binding affinity from journal publications (Schneider & Mierau 1987; Wong & Shrikhande 2003); details: range over the literature sources
healthy adult volunteers [6] = system: healthy adult volunteers
Procedure: (§3) The first panel was administered a single IR dose of 50 mg, followed 48 hours later by 4½ days of multiple IR dosing (twice daily) at 50 mg Q12 hours. The second panel was administered a single IR dose of 100 mg, followed 48 hours later by 4½ days of multiple IR dosing (twice daily) at 100 mg Q12 hours. Safety observations included vital signs, physical examination, clinical laboratory tests, ECGs, and adverse event reporting. Blood samples were collected pre-dose on Day 1 and serially for 48 hours post-dose to assess the single-dose pharmacokinetics.

clinical [7] = details: human, oral, Fasted; for Cmax: mean ± SD; for Tmax: median
Procedure: as §3

rats [8] = system: rats
Procedure: 3.3—Toxicology Studies. […] Following this study, 3- and 6-month repeat dose toxicology studies were completed at doses of 30, 100, and 300 mg/kg.

D5 dopamine receptor = D5 dopamine receptor (Homo sapiens, UniProt P21918); details: literature and own data
Chain of D5 dopamine receptor (P21918 whole entry): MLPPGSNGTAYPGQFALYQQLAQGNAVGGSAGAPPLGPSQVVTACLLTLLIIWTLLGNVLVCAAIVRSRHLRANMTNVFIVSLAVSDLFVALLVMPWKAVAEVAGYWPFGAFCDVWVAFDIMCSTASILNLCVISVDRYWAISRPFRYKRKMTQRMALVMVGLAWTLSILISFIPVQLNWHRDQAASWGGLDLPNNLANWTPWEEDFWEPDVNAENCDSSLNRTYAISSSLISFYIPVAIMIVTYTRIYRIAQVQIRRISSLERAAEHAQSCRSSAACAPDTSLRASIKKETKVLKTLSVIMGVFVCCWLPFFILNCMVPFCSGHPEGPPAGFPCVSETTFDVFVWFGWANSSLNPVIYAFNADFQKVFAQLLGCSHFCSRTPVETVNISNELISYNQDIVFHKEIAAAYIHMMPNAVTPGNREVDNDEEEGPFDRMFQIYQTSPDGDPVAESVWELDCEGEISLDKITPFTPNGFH
Procedure: (§2) These concentrations were tested in cell lines expressing select human cloned dopamine receptors (D2S, D3).

D1 dopamine receptor = D1 dopamine receptor (Homo sapiens, UniProt P21728); details: literature and own data
Chain of D1 dopamine receptor (P21728 whole entry): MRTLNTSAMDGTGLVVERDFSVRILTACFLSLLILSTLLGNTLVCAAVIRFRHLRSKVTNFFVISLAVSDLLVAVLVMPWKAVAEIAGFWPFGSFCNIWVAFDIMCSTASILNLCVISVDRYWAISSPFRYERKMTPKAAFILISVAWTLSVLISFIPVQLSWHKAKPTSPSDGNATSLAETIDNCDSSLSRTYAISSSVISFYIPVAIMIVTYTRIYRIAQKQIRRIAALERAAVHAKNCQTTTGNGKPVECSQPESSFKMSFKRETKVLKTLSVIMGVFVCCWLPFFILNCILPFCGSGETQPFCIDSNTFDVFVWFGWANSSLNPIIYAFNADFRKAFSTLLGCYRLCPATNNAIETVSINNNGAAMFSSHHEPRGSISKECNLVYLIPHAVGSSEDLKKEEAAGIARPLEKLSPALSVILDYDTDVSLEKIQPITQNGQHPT
Procedure: as §2

minipigs [9] = details: both, minipig, in vivo, 14 days
Procedure: (§4) The 3- and 6-month repeat dose studies have now been completed at the 7.5, 25 and 50 mg/kg dose levels and the 9-month repeat dose study is ongoing.

in vivo = details: both, minipig
Procedure: as §4

[10] = target: human cloned dopamine receptors (D3) (Homo sapiens, UniProt P35462); test: biochemical
Chain of human cloned dopamine receptors (D3) (P35462 whole entry): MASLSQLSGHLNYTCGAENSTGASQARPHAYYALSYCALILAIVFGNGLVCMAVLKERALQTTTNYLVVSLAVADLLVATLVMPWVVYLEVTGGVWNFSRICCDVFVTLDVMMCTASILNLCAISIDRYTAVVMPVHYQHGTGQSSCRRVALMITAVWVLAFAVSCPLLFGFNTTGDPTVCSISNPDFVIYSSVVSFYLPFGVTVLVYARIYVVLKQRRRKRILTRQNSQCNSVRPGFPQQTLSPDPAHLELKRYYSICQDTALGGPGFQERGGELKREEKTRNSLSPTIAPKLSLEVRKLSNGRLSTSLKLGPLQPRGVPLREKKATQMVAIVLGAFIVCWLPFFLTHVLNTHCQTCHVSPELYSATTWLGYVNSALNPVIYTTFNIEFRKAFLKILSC
Procedure: as §2

minipigs [11] = details: past month 7, any dose level
rats [12] = details: 6-month study, any dose level
[13] = CL002, 50 mg Q12H (Day 1), Fasted, mean ± SD
[14] = CL002, 50 mg Q12H (Day 7), Fasted, mean ± SD
[15] = CL002, 100 mg Q12H (Day 1), Fasted, mean ± SD
[16] = CL002, 100 mg Q12H (Day 7), Fasted, mean ± SD
[17] = Day 1, 50 mg IR oral, fasted, mean ± SD
[18] = Day 1, 100 mg IR oral, fasted, mean ± SD
[19] = Day 7, 50 mg after Q12H Days 3-6, fasted, mean ± SD
[20] = Day 7, 100 mg after Q12H Days 3-6, fasted, mean ± SD
[21] = blood, 50 mg, CL002, 50 mg Q12H (Day 1)
[22] = blood, 50 mg, CL002, 50 mg Q12H (Day 7)
[23] = in vivo, 100 mg, CL002, 100 mg Q12H (Day 1)
[24] = in vivo, 100 mg, CL002, 100 mg Q12H (Day 7)

## CCCN[C@@H]1CCc2nc(N)sc2C1 [RPPX, (6R)-4,5,6,7-tetrahydro-N6-propyl-2,6-benzothiazole-diamine]
Minipigs [1]; 75 mg/kg level, by month 2
  mortality in repeat dose studies in minipigs: mortalities
Minipigs [1]; both, minipig, in vivo, 3 months
  target organ toxicity by histopathology after 3 months, minipigs: No target organ toxicity
[2]; from dog data
  human equivalence dose of the dog MTD, for a 70 kg human subject: about 3,000 mg
[2]; male, beagle, dog, in vivo, 4 days
  observable effects in dogs: no observable effects
Clinical [3]; 50 mg
  Cmax: 125 ± 22 ng/mL
  Tmax: 2.04 h
Clinical [3]; 150 mg
  Cmax: 360 ± 60.4 ng/mL
  Tmax: 2.04 h
Clinical [3]; 300 mg
  Cmax: 781 ± 158 ng/mL
  Tmax: 1.96 h
Healthy adult volunteers [4]; CL001, 50 mg SD, Fasted
  CL/F: 706 ± 182 mL/h
  Ue: 35.3 ± 5.19 ^ mg
Healthy adult volunteers [4]; CL001, 150 mg SD, Fasted
  CL/F: 692 ± 183 mL/h
  Ue: 60.5 ± 7.04 ^ mg
Healthy adult volunteers [4]; CL001, 150 mg SD, second 150 mg line, Food printed Fasted
  CL/F: 774 ± 165 mL/h
Healthy adult volunteers [4]; CL001, 300 mg SD, Fasted
  CL/F: 659 ± 260 mL/h
  Ue: 198 ± 28.0 ^ mg
Healthy adult volunteers [4]; across dose levels
  Urinary excretion of unchanged drug, share of drug elimination: approximately 70%
Healthy adult volunteers [4]; all 24 subjects (RPPX or placebo, blinded)
  subjects reporting at least one non-serious adverse event: 46%
Healthy adult volunteers [4]; all subjects (RPPX or placebo, blinded)
  subjects with mild dizziness (most frequent AE): 21%
Healthy adult volunteers [4]; single oral 50 mg, fasted
  CL/F: 706 ± 182 (6) mL/min
  Fe: 70.7 ± 10.4 (6) % Dose
  Ue: 35.3 ± 5.19 (6) mg
  λZ: 0.1064 ± 0.0171 (6) h^−1
Healthy adult volunteers [4]; single oral 150 mg, fasted
  CL/F: 692 ± 183 (5) mL/min
  Fe: 40.3 ± 4.69 (6) % Dose
  Ue: 60.5 ± 7.04 (6) mg
  λZ: 0.1001 ± 0.0087 (5) h^−1
Healthy adult volunteers [4]; single oral 150 mg, fed
  CL/F: 774 ± 165 (6) mL/min
  λZ: 0.1152 ± 0.0256 (6) h^−1
Healthy adult volunteers [4]; single oral 300 mg, fasted
  CL/F: 659 ± 260 (6) mL/min
  Fe: 65.8 ± 9.33 (6) % Dose
  Ue: 198 ± 28.0 (6) mg
  λZ: 0.1151 ± 0.0309 (6) h^−1
Minipigs [5]
  mortality / clinical observations between the 13-week and 26-week sacrifices, minipigs: no mortalities attributed to test article or significant clinical observations
D2 dopamine receptor
  binding affinity of RPPX at the D2 receptor, times lower than PPX, literature: 10-20 times and 9-21 times
Healthy adult volunteers [6]; 50 mg Q12H
  increase of AUC(0-12) from Day 1 to Day 7: 40%
  increase of Cmax from Day 1 to Day 7: 37%
Healthy adult volunteers [6]; 100 mg Q12H
  increase of AUC(0-12) from Day 1 to Day 7: 38%
  increase of Cmax from Day 1 to Day 7: 24%
Healthy adult volunteers [6]; [13]
  AUC (inf): 1,502 ± 280 h*ng/mL
  AUC(0-t): 1,463 ± 280 h*ng/mL
  AUC(0−12): 1,035 ± 121 h*ng/mL
  CL/F: 571 ± 107 mL/h
Healthy adult volunteers [6]; [14]
  AUC(0−12): 1,449 ± 221 h*ng/mL
  CL/F: 585 ± 81.6 mL/h
Healthy adult volunteers [6]; [15]
  AUC(0-t): 2,545 ± 497 h*ng/mL
  AUC(0−12): 1,776 ± 260 h*ng/mL
  CL/F: 665 ± 107 mL/h
Healthy adult volunteers [6]; [16]
  AUC(0−12): 2,465 ± 299 h*ng/mL
  CL/F: 684 ± 76.1 mL/h
Healthy adult volunteers [6]; [17]
  CL/F: 571 ± 107 (6) mL/min
  λz: 0.1132 ± 0.0230 (6) h^−1
Healthy adult volunteers [6]; [18]
  CL/F: 665 ± 107 (6) mL/min
  λz: 0.1073 ± 0.0161 (6) h^−1
Healthy adult volunteers [6]; [19]
  CL/F: 585 ± 81.6 (6) mL/min
  λz: 0.1025 ± 0.0186 (6) h^−1
Healthy adult volunteers [6]; [20]
  CL/F: 684 ± 76.1 (6) mL/min
  λz: 0.0894 ± 0.0117 (6) h^−1
Clinical [7]; [21]
  Cmax: 139 ± 15.3 ng/mL
  Tmax: 1.83 h
Clinical [7]; [22]
  Cmax: 191 ± 20.9 ng/mL
  Tmax: 1.75 h
Clinical [7]; [23]
  Cmax: 248 ± 30.4 ng/mL
  Tmax: 1.92 h
Clinical [7]; [24]
  Cmax: 306 ± 55 ng/mL
  Tmax: 2 h
Rats [8]; both, rat, in vivo, 300 mg/kg, 3 months
  target organ toxicity by histopathology, 3-month study in rats: some target organ toxicity
Rats [8]; both, rat, in vivo, 14 days
  target organ toxicity by histopathology, 2-week study in rats: No target organ toxicity
Rats [8]; high dose of 500 mg/kg
  mortality, 2-week study in rats: caused mortality
D5 dopamine receptor
  interaction with D5 dopamine receptors: no significant interaction
D1 dopamine receptor
  interaction with D1 dopamine receptors: no significant interaction
Minipigs [9]
  target organ toxicity by histopathology, 2-week study in minipigs: No target organ toxicity
In vivo
  NOAEL at 14 days: ≥ 75 mg/kg
[10]
  IC50: 0.61 µM
Minipigs [11]
  deaths / clinical observations, 9-month study in minipigs: no deaths attributed to test article or significant clinical observations
Rats [12]
  mortality between the 13-week and 26-week sacrifices, rats: no mortalities at any dose level
